According to ChEMBL document CHEMBL1150977, “A quantitative analysis of kinase inhibitor selectivity” (Nat Biotechnol, 2008):

Experiments:
[1] = target: T1, MAP/microtubule affinity-regulating kinase 4 (Homo sapiens, UniProt Q96L34)
T1 sequence (Q96L34 whole entry): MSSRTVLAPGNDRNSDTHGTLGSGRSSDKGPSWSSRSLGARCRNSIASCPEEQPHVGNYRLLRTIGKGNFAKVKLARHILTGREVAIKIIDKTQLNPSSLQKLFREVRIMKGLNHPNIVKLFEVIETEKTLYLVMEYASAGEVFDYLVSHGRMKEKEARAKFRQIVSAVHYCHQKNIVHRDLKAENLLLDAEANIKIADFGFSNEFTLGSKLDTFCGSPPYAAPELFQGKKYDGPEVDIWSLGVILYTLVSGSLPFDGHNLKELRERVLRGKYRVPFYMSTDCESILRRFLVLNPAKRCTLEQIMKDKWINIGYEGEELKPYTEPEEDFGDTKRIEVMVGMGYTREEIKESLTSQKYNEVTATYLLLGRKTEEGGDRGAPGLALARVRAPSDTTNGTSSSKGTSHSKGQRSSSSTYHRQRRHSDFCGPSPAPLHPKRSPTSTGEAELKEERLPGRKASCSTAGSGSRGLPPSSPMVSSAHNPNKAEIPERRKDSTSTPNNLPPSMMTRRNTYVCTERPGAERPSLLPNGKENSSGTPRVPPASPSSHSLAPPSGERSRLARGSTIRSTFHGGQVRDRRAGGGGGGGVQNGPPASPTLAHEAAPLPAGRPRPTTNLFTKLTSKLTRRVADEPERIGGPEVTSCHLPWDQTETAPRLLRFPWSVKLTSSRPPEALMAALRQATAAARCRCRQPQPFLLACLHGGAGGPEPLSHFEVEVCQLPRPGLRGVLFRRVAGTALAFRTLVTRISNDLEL

[2] = target: ALK tyrosine kinase receptor (Homo sapiens, UniProt Q9UM73)
Sequence of ALK tyrosine kinase receptor (Q9UM73 whole entry): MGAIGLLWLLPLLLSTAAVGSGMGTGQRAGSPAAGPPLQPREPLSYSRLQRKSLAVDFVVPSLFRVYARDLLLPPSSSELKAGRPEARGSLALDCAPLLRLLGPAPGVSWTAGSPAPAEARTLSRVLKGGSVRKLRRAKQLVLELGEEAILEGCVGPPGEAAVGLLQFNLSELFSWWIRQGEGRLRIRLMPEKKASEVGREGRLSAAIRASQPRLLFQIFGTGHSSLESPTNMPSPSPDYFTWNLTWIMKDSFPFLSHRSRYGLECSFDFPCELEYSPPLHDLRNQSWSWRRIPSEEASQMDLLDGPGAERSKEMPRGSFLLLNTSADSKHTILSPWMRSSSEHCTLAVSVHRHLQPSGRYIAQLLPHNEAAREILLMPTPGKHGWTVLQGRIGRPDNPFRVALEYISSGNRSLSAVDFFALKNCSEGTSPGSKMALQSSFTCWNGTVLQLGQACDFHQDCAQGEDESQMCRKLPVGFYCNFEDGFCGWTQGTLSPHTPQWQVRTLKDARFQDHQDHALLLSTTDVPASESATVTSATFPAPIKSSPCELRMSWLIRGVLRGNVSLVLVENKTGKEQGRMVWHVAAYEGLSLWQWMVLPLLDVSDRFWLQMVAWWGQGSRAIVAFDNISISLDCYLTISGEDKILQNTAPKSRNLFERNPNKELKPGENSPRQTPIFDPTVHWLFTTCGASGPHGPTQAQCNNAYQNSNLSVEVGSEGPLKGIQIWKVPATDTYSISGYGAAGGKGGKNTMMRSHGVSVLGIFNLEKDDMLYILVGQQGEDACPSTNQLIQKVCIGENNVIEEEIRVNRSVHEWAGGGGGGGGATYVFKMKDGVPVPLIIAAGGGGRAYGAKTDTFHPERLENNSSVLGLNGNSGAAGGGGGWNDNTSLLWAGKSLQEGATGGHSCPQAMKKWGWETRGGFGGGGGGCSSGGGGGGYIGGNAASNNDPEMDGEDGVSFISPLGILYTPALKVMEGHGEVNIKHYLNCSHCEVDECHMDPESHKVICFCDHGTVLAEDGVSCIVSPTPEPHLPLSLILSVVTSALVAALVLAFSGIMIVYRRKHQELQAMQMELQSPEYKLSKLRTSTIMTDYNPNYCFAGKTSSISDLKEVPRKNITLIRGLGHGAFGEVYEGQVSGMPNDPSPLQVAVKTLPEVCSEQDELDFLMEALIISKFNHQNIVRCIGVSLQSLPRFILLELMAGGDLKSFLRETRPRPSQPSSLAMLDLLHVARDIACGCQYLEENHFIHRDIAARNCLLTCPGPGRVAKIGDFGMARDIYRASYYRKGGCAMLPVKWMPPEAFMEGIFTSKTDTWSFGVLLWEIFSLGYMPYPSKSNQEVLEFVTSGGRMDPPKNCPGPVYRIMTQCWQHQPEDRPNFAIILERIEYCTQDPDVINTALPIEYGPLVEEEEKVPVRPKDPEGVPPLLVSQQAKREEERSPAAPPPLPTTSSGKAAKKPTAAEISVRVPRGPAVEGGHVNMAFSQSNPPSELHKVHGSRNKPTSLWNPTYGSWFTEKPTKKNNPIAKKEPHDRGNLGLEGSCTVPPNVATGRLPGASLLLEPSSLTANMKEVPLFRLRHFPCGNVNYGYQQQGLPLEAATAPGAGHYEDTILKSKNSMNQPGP

[3] = target: Cyclin-dependent kinase 3 (Homo sapiens, UniProt Q00526)
Sequence of Cyclin-dependent kinase 3 (Q00526 whole entry): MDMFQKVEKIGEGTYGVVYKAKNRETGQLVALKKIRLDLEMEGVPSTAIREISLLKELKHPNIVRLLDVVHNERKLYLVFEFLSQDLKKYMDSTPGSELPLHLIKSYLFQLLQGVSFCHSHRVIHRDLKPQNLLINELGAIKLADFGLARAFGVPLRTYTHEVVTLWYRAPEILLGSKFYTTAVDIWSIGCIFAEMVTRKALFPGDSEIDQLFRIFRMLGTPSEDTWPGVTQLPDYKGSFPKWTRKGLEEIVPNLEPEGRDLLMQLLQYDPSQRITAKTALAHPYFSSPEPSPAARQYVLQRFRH

[4] = target: T2, Serine/threonine-protein kinase LATS1 (Homo sapiens, UniProt O95835)
T2 sequence (O95835 whole entry): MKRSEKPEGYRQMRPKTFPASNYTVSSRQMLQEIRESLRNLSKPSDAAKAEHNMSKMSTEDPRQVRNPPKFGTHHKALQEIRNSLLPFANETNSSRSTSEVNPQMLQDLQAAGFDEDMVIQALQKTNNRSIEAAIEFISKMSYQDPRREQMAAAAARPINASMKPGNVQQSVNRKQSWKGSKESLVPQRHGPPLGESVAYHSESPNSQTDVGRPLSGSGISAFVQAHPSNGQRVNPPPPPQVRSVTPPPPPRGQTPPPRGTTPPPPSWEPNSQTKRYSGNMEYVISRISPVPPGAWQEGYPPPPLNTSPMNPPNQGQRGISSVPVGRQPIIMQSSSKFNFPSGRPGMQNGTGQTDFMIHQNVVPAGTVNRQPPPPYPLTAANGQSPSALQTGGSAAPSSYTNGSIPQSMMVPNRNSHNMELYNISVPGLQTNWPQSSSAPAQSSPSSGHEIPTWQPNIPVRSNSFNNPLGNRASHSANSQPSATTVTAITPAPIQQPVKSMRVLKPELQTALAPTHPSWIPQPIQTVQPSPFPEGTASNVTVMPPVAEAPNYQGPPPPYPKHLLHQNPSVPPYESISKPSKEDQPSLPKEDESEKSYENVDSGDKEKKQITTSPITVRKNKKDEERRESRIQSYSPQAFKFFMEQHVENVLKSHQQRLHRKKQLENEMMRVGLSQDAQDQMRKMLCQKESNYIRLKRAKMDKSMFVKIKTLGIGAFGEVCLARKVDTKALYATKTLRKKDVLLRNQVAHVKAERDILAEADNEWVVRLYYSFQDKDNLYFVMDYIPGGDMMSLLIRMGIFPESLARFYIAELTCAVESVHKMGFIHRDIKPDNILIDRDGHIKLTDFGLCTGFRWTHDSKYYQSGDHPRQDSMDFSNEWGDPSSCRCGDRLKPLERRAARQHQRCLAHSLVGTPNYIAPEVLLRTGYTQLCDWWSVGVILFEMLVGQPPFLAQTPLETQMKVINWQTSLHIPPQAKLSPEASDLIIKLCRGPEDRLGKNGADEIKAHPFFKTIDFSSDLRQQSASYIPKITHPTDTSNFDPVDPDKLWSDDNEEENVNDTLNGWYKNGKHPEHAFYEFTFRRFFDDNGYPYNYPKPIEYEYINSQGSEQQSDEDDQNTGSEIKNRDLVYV

TGF-beta receptor type-2 = TGF-beta receptor type-2 (Homo sapiens, UniProt P37173)
Sequence of TGF-beta receptor type-2 (P37173 whole entry): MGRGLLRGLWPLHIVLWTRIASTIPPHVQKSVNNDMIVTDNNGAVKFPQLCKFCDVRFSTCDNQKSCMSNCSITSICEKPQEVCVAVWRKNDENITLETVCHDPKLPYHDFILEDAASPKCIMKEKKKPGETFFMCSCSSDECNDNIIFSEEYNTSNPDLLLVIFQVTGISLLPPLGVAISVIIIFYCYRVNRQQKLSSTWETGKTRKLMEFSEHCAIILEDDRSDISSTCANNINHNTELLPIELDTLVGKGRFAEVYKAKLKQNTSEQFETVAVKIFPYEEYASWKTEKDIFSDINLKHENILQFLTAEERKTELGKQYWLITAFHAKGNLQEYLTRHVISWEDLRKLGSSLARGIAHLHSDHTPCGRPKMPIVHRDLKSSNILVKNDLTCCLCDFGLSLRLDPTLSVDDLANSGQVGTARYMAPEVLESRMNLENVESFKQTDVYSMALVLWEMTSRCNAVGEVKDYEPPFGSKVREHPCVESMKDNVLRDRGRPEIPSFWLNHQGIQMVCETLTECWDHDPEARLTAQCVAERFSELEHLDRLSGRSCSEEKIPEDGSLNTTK

[5] = target: Cyclin-dependent kinase 11B (Homo sapiens, UniProt P21127)
Sequence of Cyclin-dependent kinase 11B (P21127 whole entry): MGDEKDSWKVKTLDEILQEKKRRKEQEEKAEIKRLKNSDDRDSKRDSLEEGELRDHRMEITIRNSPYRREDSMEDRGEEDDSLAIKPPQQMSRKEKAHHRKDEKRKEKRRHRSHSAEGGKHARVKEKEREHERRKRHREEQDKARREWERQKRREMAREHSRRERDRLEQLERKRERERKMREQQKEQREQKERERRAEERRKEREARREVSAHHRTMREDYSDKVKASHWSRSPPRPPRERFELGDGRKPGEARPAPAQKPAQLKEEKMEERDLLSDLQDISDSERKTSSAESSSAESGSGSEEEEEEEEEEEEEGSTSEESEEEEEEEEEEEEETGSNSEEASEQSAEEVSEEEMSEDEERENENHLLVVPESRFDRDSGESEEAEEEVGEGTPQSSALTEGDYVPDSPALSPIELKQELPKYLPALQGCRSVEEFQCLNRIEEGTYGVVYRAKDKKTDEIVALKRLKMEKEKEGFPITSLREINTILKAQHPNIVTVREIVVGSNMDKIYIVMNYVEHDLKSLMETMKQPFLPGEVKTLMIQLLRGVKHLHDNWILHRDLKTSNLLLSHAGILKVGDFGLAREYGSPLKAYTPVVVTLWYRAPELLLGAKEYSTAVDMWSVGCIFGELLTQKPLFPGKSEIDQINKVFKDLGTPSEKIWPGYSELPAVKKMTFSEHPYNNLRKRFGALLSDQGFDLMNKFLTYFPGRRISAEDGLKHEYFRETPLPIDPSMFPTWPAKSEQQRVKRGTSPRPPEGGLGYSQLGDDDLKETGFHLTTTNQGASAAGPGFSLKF

[6] = target: Bone morphogenetic protein receptor type-1A (Homo sapiens, UniProt P36894)
Sequence of Bone morphogenetic protein receptor type-1A (P36894 whole entry): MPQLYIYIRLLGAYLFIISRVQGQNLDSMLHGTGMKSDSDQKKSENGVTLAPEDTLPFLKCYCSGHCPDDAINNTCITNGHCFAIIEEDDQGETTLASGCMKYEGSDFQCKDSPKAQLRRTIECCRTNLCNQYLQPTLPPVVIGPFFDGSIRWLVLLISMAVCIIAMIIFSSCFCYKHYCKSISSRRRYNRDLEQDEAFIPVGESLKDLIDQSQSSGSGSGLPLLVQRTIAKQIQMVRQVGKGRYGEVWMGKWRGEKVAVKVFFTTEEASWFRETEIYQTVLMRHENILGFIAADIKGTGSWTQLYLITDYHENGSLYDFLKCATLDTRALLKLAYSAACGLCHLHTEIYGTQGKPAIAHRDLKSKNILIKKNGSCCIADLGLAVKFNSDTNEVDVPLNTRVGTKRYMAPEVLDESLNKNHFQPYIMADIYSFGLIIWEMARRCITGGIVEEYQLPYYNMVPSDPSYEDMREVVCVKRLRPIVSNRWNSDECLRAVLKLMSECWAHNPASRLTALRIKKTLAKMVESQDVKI

[7] = target: T3, Tyrosine-protein kinase ITK/TSK (Homo sapiens, UniProt Q08881)
T3 sequence (Q08881 whole entry): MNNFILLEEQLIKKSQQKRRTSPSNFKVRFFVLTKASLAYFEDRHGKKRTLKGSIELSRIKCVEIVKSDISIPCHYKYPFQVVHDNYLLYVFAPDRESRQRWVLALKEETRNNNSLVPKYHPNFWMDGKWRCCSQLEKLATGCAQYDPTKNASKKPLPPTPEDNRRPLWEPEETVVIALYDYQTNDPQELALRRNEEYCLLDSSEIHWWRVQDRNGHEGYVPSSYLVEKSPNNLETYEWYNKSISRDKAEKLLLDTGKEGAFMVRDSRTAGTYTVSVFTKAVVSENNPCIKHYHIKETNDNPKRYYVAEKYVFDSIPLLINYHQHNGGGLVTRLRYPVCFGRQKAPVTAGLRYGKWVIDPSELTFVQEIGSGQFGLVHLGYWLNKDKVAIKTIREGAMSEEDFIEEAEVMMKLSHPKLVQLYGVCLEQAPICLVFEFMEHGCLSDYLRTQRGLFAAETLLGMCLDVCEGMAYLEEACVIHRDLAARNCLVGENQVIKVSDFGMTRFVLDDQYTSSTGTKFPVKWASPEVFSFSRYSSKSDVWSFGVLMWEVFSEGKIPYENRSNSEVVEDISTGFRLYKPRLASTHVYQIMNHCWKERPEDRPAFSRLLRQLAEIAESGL

For COCC(=O)NC/C=C/c1ccc2ncnc(Nc3ccc(Oc4ccc(C)nc4)c(C)c3)c2c1 [CP-724714], the Kd [1] was greater than 10 µM, the Kd [2] was greater than 10 µM and the Kd [3] was greater than 10 µM. It also gave a Kd [4] greater than 10 µM, a Kd (TGF-beta receptor type-2) greater than 10 µM and a Kd [5] greater than 10 µM. For the same compound, the Kd [6] was greater than 10 µM and the Kd [7] was greater than 10 µM.

CCOc1cc2ncc(C#N)c(Nc3ccc(F)c(Cl)c3)c2cc1NC(=O)/C=C/CN(C)C [PELITINIB] showed a Kd [1] greater than 10 µM, a Kd [2] of 7.1 µM and a Kd [3] greater than 10 µM. The Kd [4] was greater than 10 µM, the Kd (TGF-beta receptor type-2) was greater than 10 µM and the Kd [5] was greater than 10 µM. For the same compound, the Kd [6] was greater than 10 µM.

In the case of NC(=O)c1ccc(-c2nc(-c3ccc4c(c3)OCO4)c(-c3ccccn3)[nH]2)cc1 [SB-431542], the Kd [1] is reported as greater than 10 µM, the Kd [2] is reported as greater than 10 µM and the Kd [3] is reported as greater than 10 µM. It also gave a Kd [4] greater than 10 µM, a Kd [5] greater than 10 µM and a Kd [6] greater than 10 µM. It also gave a Kd [7] greater than 10 µM.

CCN1CCN(Cc2ccc(NC(=O)Nc3ccc(Oc4cc(NC)ncn4)cc3)cc2C(F)(F)F)CC1 [AST-487] was tested, and the Kd [3] was 0.082 µM.

In the case of Nc1nc(Nc2ccc(S(N)(=O)=O)cc2)nn1C(=O)c1c(F)cccc1F [JNJ-7706621], the Kd [4] is reported as greater than 10 µM, the Kd (TGF-beta receptor type-2) is reported as greater than 10 µM and the Kd [6] is reported as greater than 10 µM. For the same compound, the Kd [7] was greater than 10 µM.

In the case of Oc1ccc(-c2nc(-c3ccncc3)c(-c3ccc(F)cc3)[nH]2)cc1 [SB-202190], the Kd [1] is reported as greater than 10 µM, the Kd [2] is reported as greater than 10 µM and the Kd [3] is reported as greater than 10 µM. The Kd [4] was greater than 10 µM, the Kd (TGF-beta receptor type-2) was greater than 10 µM and the Kd [5] was greater than 10 µM. For the same compound, the Kd [6] was greater than 10 µM and the Kd [7] was greater than 10 µM.
